Assay results taken from patent US9873883B2, “Glyphosate resistant plants and associated methods” (Dow AgroSciences LLC, priority 2012, dated 2018).

Experiments:
[1] = system: Arabidopsis transformed with TraP5 v2::dgt-14 (pDAB105525); test: Postemergence glyphosate tolerance, visual injury; type: in vivo, Arabidopsis thaliana; settings: 2 weeks after application
[2] = system: Arabidopsis transformed with TraP12 v2::dgt-14 (pDAB105528); test: Postemergence glyphosate tolerance, visual injury; type: in vivo, Arabidopsis thaliana; settings: 2 weeks after application
[3] = target: T1, Mariprofundus ferrooxydans EPSP synthase DGT-14 v1, native wild type (GENBANK ZP_01452683; SEQ ID NO:17) (Mariprofundus ferrooxydans, UniProt Q0EYT4); test: In vitro kinetic assay (inorganic phosphate production, malachite green); type: biochemical; settings: IC50 (glyphosate)
T1 construct: pET28, N-terminal 6xHis and thrombin site, E. coli, IMAC purified
Protocol: One enzyme that was identified was DGT-14 (GENBANK ACC NO: ZP_01452683) from Manprofundus ferrooxydans. […] One of these enzymes, DGT-11 (SEQ ID NO:5), contains a natural alanine at an analogous position within the EPSP synthase enzyme as that of the G96A mutation which was introduced into the E. coli version of the enzyme.
Site directed mutagenesis was carried out on the synthetic dgt-14 v6 to confirm the role of the alanine that was introduced at the glycine residue of amino acid residue 101. THE QUICK CHANGE II® kit from Stratagene (Santa Clara, Calif.) was used to perform the mutagenesis. The following primers were designed to make the amino acid switch. […]
Cell pellets from 1 L cultures were resuspended in 20-30 mL Buffer A (50 mM HEPES pH 7.5, 150 mM KCl, 2 mM DTT, 1 mM EDTA, 20 mM imidazole, and 5% glycerol). […] Samples were typically diluted 1:50 and the UV-visible spectrum was recorded from 240-700 nm on a Cary50 Bio UV-visible spectrophotometer. A theoretical extinction coefficient was then used to calculate the protein concentration based on the absorbance at 280 nm (ExPASy, Geneva, Switzerland).
The enzyme activities of wild-type (WT) and mutant DGTs were measured by inorganic phosphate (Pi) production in a modified procedure described by Lanzetta et al., (1979). […]

For `O=C(O)CNCP(=O)(O)O` [glyphosate, N-(phosphonomethyl)glycine], the “Visual % injury (Ave)” value ([1]; T2, 840 g ae/ha) was 90.0%, the “Visual % injury (Ave)” value ([1]; T3, 840 g ae/ha) was 97.5% and the “Visual % injury (Ave)” value ([2]; T2, 840 g ae/ha) was 2.5%. For the same compound, the “Visual % injury (Ave)” value ([2]; T3, 840 g ae/ha) was 0.0%, the IC50 ([3]; at 60 μM PEP) was 440 µM and the IC50 ([3]; at 1 mM PEP) was greater than 20200 µM.
